One may read the IC50 as the point on the concentration scale where inhibition reaches its midpoint.

The nature of the first assay: YAP Reporter Assay: HEK293T cells stably transfected with 8XTBD luciferase reporter and pRLTK in 384-well plates were treated with the test compounds, starting from 3 μM (final concentration in assay plate), 1:3 dilution, and 10 points in quadruplicates. Post 24-hr incubation with compounds at 37° C. and 5% CO2, cells were lysed and 8XTBD-driven firefly luciferase and control TK-driven renilla luciferase activities were measured using Promega Dual-Luciferase Reporter Assay System.Reagents: The reagents used for this study are: DMEM: Invitrogen #11960077, Dual-Glo Luciferase Assay System: Promega-E2980, Puromycin Dihydrochloride: Invitrogen-A1113803, 384-well plate: PerkinElmer-6007480, L-GLUTAMINE: Invitrogen-25030164, Hygromycin B: Invitrogen-10687010, and Penicillin-Streptomycin: Merk-TMS-AB2-CMedia: The media used for this assay were: Culture Medium: DMEM+1 ug/mL puromycin+200 ug/mL hygromycin (with 10% FBS+1 mM L-glutamine); and Assay Medium: DMEM (with 10% FBS+1 mM L-glutamine+1× P/S).Cell Plating: The appropriate media was warmed at 37° C. by water bath: Culture Medium, Assay Medium, 1*D-PBS, 0.05% trypsin-EDTA. The cells were trypsinized after removing all media, then washed with 1*sterile D-PBS and then with 2 ml 0.05% trypsin-EDTA. The cells were then incubated at RT for one minute. Then 10 ml/75 cm2 flask Assay Medium was added to each flask. Using a 10 ml pipette, the cells were then gently resuspended in the media, until the clumps completely disappeared. The cells were then transferred into 50 ml centrifuge tubes and were centrifuged at 800 rpm for 5 mins. The medium was removed and the cells were resuspended with Assay Medium. An aliquot of cells was used to count the cell density (cells/nil). The cell suspension was then diluted with Assay Medium to a concentration of 6×10^4 cells/ml. 50 ul cells suspension was then plated to 384-well plate (PerkinElmer-6007480), 3×10^3 cells/well and the cells were incubated in an incubator at 37° C., 5% CO2.Compound Treatment: In the afternoon (incubation of the plate with 3-4 hrs), the test compounds were added by Echo, starting from 3 uM (final concentration in the assay plate), 1:3 dilution, 10 points, quadruplicates. The plate was placed at 37° C., 5% CO2 incubator for 24 hrs.Detection: The Dual-Glo Luciferase Reagent was prepared by transferring the contents of one bottle of Dual-Glo Luciferase Buffer to one bottle of Dual-Glo Luciferase Substrate to create the Dual-Glo Luciferase Reagent. Mixing was performed by inversion until the substrate was thoroughly dissolved. After mixing, the reagent was aliquoted into 15 ml tubes. In the afternoon (24 hrs post compound treatment), the DMEM+ medium in the 384 well plates were aspirated by Microplate Washer.Measuring firefly luciferase activity: 20 ul Dual-Glo Luciferase Reagent was added to the 384-well plates. The plates were protected from light to prevent interference with the assay. The plates were shaken for 1 min followed centrifuging plates at 1000 rpm for 30 seconds. After waiting at least 10 minutes, the firefly luminescence was measured by Envision.Measuring renilla luciferase activity: 20 ul Stop-Glo Reagent was added to the 384-well plates. The plates were shaken for lmin and then centrifuged at 1000 rpm for 30 seconds. After waiting at least 10 minutes, the renilla luminescence was measured by Envision.
Settings: not given
Background: Reporter assays use an easily measured gene product as a stand-in for the process of interest.
With `OCCn1nnc(-c2ccccc2Nc2ccc(C(F)(F)F)cc2)n1`, the IC50 is less than 100 nM.
Consider `OCCn1nnc(-c2ccccc2Nc2cccc(C(F)(F)F)c2)n1`, for which the IC50 result was “in the range around 3000 nM”.

Still in this assay, the particulars now being: HEK-293T, 24 h.
With `OC(Cn1nnc(-c2ccccc2Nc2ccc(C(F)(F)F)cc2)n1)C(F)(F)F` (stereo unspecified), the IC50 is less than 100 nM.
The same measure, in the same setting: the value for `OC1(Cn2nnc(-c3ccccc3Nc3ccc(C(F)(F)F)cc3)n2)CCNCC1` was “in the range around 3000 nM”; that for `CN(C)CCCn1nnc(-c2ccccc2Nc2ccc(C(F)(F)F)cc2)n1` was “in the range around 3000 nM”; that for `CS(=O)(=O)NCCCn1nnc(-c2ccccc2Nc2ccc(C(F)(F)F)cc2)n1` was “in the range around 3000 nM”.
As for `OCCn1nnc(-c2cccnc2Nc2ccc(C(F)(F)F)cc2)n1`, the concentration for half-maximal inhibition (IC50) result is “in the range around 550 nM”.
For `OCCn1nnc(-c2ccccc2Nc2cccc(F)c2)n1`, the IC50 result is “in the range around 550 nM”.
Same read-out and setting: the value for `OCCn1nnc(-c2ccccc2Nc2ccc(F)cc2F)n1` was “in the range around 550 nM”.
On to `OCCn1nnc(-c2cccnc2Nc2ccc(OC(F)(F)F)cc2)n1`, for which the IC50 entry was “in the range around 550 nM”.
Consider `OCCn1nnc(-c2ccccc2Nc2cccc(OC(F)(F)F)c2)n1`, for which the IC50 entry was “in the range around 550 nM”.
On the same count and under the same terms, the value for `CN(C)CCCn1nnc(-c2ccccc2Nc2ccc(OC(F)(F)F)cc2)n1` was “in the range around 3000 nM”.
With `FC(F)(F)Oc1ccc(Nc2ccccc2-c2nnn(Cc3cccnc3)n2)cc1`, the IC50 entry was “in the range around 3000 nM”.
As for `NC(=O)NCCn1nnc(-c2ccccc2Nc2ccc(C(F)(F)F)cc2)n1`, the IC50 was less than 100 nM.
Still for that read-out and setting: the value for `CC(C)(O)Cn1nnc(-c2ccccc2Nc2ccc(C(F)(F)F)cc2)n1` was less than 100 nM; that for `O=C(Cn1nnc(-c2ccccc2Nc2ccc(C(F)(F)F)cc2)n1)N1CCCC1` was “in the range around 550 nM”; that for `CC(CO)n1nnc(-c2ccccc2Nc2ccc(C(F)(F)F)cc2)n1` (stereo unspecified) was less than 100 nM.
As for `COCCn1nnc(-c2ccccc2Nc2cccc(C(F)(F)F)c2)n1`, the IC50 result is “in the range around 3000 nM”.
As for `CCOC(=O)Cn1cc(-c2ccccc2Nc2cccc(C(F)(F)F)c2)cn1`, the IC50 result is “in the range around 550 nM”.
Consider `NC(=O)OCCn1nnc(-c2ccccc2Nc2ccc(C(F)(F)F)cc2)n1`, for which the IC50 is less than 100 nM.
Take `OCCn1nnc(-c2ccccc2Nc2ccc(C(F)(F)F)cc2)n1`: the IC50 is less than 100 nM.
As to `CCc1cccc(Nc2ccccc2-c2nnn(CCO)n2)c1`, the IC50 entry is “in the range around 550 nM”.
The same measure, in the same setting: the value for `NC(=O)Cn1nnc(-c2ccccc2Nc2ccc(C(F)(F)F)cc2)n1` was less than 100 nM.
For `FC(F)(F)c1ccc(Nc2ccccc2-c2nnn(Cc3ccncc3)n2)cc1`, the IC50 entry was “in the range around 550 nM”.
Consider `CC(=O)NCCCn1nnc(-c2ccccc2Nc2ccc(C(F)(F)F)cc2)n1`, for which the IC50 entry is “in the range around 550 nM”.
The same measure, in the same setting: the value for `CCOC(=O)Cn1nnc(-c2ccccc2Nc2ccc(F)cc2)n1` was “in the range around 550 nM”; that for `FC(F)(F)c1ccc(Nc2ccccc2-c2nnn(C3COC3)n2)cc1` was less than 100 nM.
In the case of `OCCn1nnc(-c2cnccc2Nc2ccc(C(F)(F)F)cc2)n1`, the IC50 result was “in the range around 3000 nM”.
On to `OCCn1nnc(-c2ccccc2Nc2ccccc2F)n1`, for which the IC50 entry was “in the range around 3000 nM”.
With `CCOC(=O)C(C)n1nnc(-c2ccccc2Nc2ccc(C(F)(F)F)cc2)n1` (stereo unspecified), the IC50 was less than 100 nM.
`FCCCn1nnc(-c2ccccc2Nc2ccc(C(F)(F)F)cc2)n1`: the IC50 result was “in the range around 550 nM”.
Consider `FCCn1nnc(-c2ccccc2Nc2ccc(C(F)(F)F)cc2)n1`, for which the IC50 result was “in the range around 550 nM”.
Take `OC(Cn1nnc(-c2ccccc2Nc2ccc(C(F)(F)F)cc2)n1)C1CC1` (stereo unspecified): the IC50 is less than 100 nM.
In the case of `CC(O)Cn1nnc(-c2ccccc2Nc2ccc(C(F)(F)F)cc2)n1` (stereo unspecified), the 50% inhibitory concentration (IC50) was less than 100 nM.
Take `FC(F)(F)c1ccc(Nc2ccccc2-c2nnn(Cc3cccnc3)n2)cc1`: the IC50 entry was “in the range around 550 nM”.
In the case of `FC(F)(F)Oc1ccc(Nc2ccccc2-c2nnn(Cc3ccccn3)n2)cc1`, the IC50 result is “in the range around 3000 nM”.
With `OCCn1nnc(-c2ccccc2Nc2ccc(F)cc2)n1`, the IC50 result was “in the range around 550 nM”.
Still for that read-out and setting: the value for `O=C1NCC(Cn2nnc(-c3ccccc3Nc3ccc(C(F)(F)F)cc3)n2)O1` (stereo unspecified) was “in the range around 550 nM”; that for `OCC(O)Cn1nnc(-c2ccccc2Nc2ccc(C(F)(F)F)cc2)n1` (stereo unspecified) was less than 100 nM.
`CCOC(=O)Cn1ncc(-c2ccccc2Nc2ccc(C(F)(F)F)cc2)c1C`: the 50% inhibitory concentration (IC50) is less than 100 nM.
Still for that read-out and setting: the value for `CCN(CC)C(=O)Cn1nnc(-c2ccccc2Nc2ccc(C(F)(F)F)cc2)n1` was “in the range around 3000 nM”.
Still for that read-out and setting: the value for `OCCn1nnc(-c2ccccc2Nc2cccc(C(F)(F)F)c2)n1` was “in the range around 3000 nM”; that for `NS(=O)(=O)NCCn1nnc(-c2ccccc2Nc2ccc(C(F)(F)F)cc2)n1` was “in the range around 3000 nM”; that for `CNC(=O)Cn1nnc(-c2ccccc2Nc2ccc(C(F)(F)F)cc2)n1` was less than 100 nM.
Turning to `CCOC(=O)Cn1ncc(-c2ccccc2Nc2cccc(C(F)(F)F)c2)c1C`, the IC50 entry was “in the range around 3000 nM”.
Same read-out and setting: the value for `OCCn1nnc(-c2ccccc2Nc2ccc(F)c(F)c2)n1` was “in the range around 550 nM”; that for `CC(=O)NCCn1nnc(-c2ccccc2Nc2ccc(C(F)(F)F)cc2)n1` was “in the range around 550 nM”; that for `CS(=O)(=O)NCCn1nnc(-c2ccccc2Nc2ccc(C(F)(F)F)cc2)n1` was “in the range around 3000 nM”.
For `O=C(Cn1nnc(-c2ccccc2Nc2ccc(C(F)(F)F)cc2)n1)c1ccccc1`, the IC50 result is “in the range around 3000 nM”.
Turning to `OCCCn1nnc(-c2ccccc2Nc2cccc(C(F)(F)F)c2)n1`, the IC50 result is “in the range around 550 nM”.
For the molecule `FC(F)(F)c1ccc(Nc2ccccc2-c2nnn(C3CCOC3)n2)cc1` (stereo unspecified), the IC50 was less than 100 nM.
On the same count and under the same terms, the value for `Cc1nn(CCO)cc1-c1ccccc1Nc1ccc(C(F)(F)F)cc1` was “in the range around 3000 nM”; that for `FC(F)(F)c1ccc(Nc2ccccc2-c2nnn(C3CCCOC3)n2)cc1` (stereo unspecified) was “in the range around 550 nM”; that for `FC(F)(F)c1ccc(Nc2ccccc2-c2nnn(C3CCOCC3)n2)cc1` was “in the range around 550 nM”.
Turning to `CCOC(=O)Cn1cc(-c2ccccc2Nc2ccc(C(F)(F)F)cc2)cn1`, the IC50 is less than 100 nM.
Consider `COc1ccc(Nc2ccccc2-c2nnn(CCO)n2)cc1`, for which the half-maximal inhibitory concentration (IC50) entry is “in the range around 550 nM”.
On to `COCC(C)n1nnc(-c2ccccc2Nc2ccc(C(F)(F)F)cc2)n1` (stereo unspecified), for which the IC50 was less than 100 nM.
Turning to `O=C(O)Cn1cc(-c2ccccc2Nc2ccc(C(F)(F)F)cc2)cn1`, the IC50 result was “in the range around 550 nM”.
For the molecule `Cc1c(-c2ccccc2Nc2ccc(C(F)(F)F)cc2)cnn1CCO`, the IC50 result was “in the range around 3000 nM”.
`OCCn1nnc(-c2ccccc2Nc2ccc(SC(F)F)cc2)n1`: the IC50 entry was “in the range around 550 nM”.
Regarding `CCc1ccc(Nc2ccccc2-c2nnn(CCO)n2)cc1`, the IC50 entry was “in the range around 550 nM”.
On to `CCOC(=O)Cn1cc(-c2ccccc2Nc2cccc(C(F)(F)F)c2)nn1`, for which the IC50 result is “in the range around 3000 nM”.
As for `OCCCn1nnc(-c2ccccc2Nc2ccc(C(F)(F)F)cc2)n1`, the IC50 was less than 100 nM.
With `C[C@H](c1ccccc1)N1C(=O)OC[C@H]1Cn1nnc(-c2ccccc2Nc2ccc(C(F)(F)F)cc2)n1`, the IC50 entry is “in the range around 550 nM”.
On the same count and under the same terms, the value for `CCOC(=O)Cn1cc(-c2ccccc2Nc2ccc(C(F)(F)F)cc2)c(C)n1` was “in the range around 550 nM”; that for `CNC(=O)Cn1nnc(-c2ccccc2Nc2ccc(OC(F)(F)F)cc2)n1` was “in the range around 550 nM”.
Still for that read-out and setting: the value for `OCCn1nnc(-c2ccccc2Nc2ccc(OC(F)(F)F)cc2)n1` was less than 100 nM.
`OC1(Cn2nnc(-c3ccccc3Nc3ccc(C(F)(F)F)cc3)n2)CCCCC1`: the IC50 entry is “in the range around 550 nM”.
Same read-out and setting: the value for `CN(C)C(=O)Cn1nnc(-c2ccccc2Nc2ccc(C(F)(F)F)cc2)n1` was “in the range around 550 nM”; that for `NS(=O)(=O)Cn1nnc(-c2ccccc2Nc2ccc(C(F)(F)F)cc2)n1` was “in the range around 550 nM”.
With `FC(F)(F)c1ccc(Nc2ccccc2-c2nnn(Cc3ccccn3)n2)cc1`, the IC50 entry was “in the range around 550 nM”.
Same read-out and setting: the value for `O=C(Cn1nnc(-c2ccccc2Nc2ccc(C(F)(F)F)cc2)n1)NO` was “in the range around 550 nM”.
As to `O=C(Cn1nnc(-c2ccccc2Nc2ccc(C(F)(F)F)cc2)n1)C1CC1`, the IC50 result is “in the range around 550 nM”.
Same read-out and setting: the value for `CN(C)CCn1nnc(-c2ccccc2Nc2ccc(C(F)(F)F)cc2)n1` was “in the range around 550 nM”; that for `CC(C)C(=O)Cn1nnc(-c2ccccc2Nc2ccc(C(F)(F)F)cc2)n1` was “in the range around 550 nM”.
Consider `OC1(Cn2nnc(-c3ccccc3Nc3ccc(C(F)(F)F)cc3)n2)CCOCC1`, for which the IC50 entry was “in the range around 550 nM”.

For the origin of these results see ChEMBL document CHEMBL5728837, “Non-fused tricyclic compounds” (2021).
